pIC50: −log10 of the molar value. Values after ≈ are worked out from the molar mass of the structure shown. Values joined by “and” are separate entries in the source; they are usually repeats but may differ in a detail not shown here. Equal entries are not always repeated.
Tests used:
[1] = target: Glutamate receptor ionotropic, NMDA 1 (Homo sapiens, UniProt Q05586); assay: Antagonist activity at human NMDA NR1 receptor; type: functional
Liver microsomes [2] = assay: Metabolic stability in rat liver microsome; type: ADME
Caco-2 = assay: Ratio of permeability from basolateral to apical over apical to basolateral side of the Caco-2 cell membrane; type: ADME, cell-based; settings: human
Liver microsomes [3] = assay: Metabolic stability in human liver microsome; type: ADME
[4] = (§1) Bioavailability in Sprague-Dawley rat at 5 mg/kg, po; type: ADME, organism-based; settings: Sprague-Dawley, in vivo
[5] = Permeability from apical to basolateral side of the Caco-2 cell membrane; type: ADME, cell-based; settings: human, read-out: permeability
[6] = AUC in Sprague-Dawley rat at 5 mg/kg, po; type: ADME, organism-based; parameters: dose 5 mg/kg, route oral; settings: plasma
[7] = Solubility of the compound; type: physicochemical
Rattus norvegicus [8] = assay: Anticonvulsant activity in Swiss Webster mouse at 100 mg/kg by MES assay; type: functional
Rattus norvegicus [9] = assay: […] in […] at 300 mg/kg, ip by MES assay; type: functional; settings: route intraperitoneal
Rattus norvegicus [10] = assay: Analgesic activity in rat formalin pain model assessed as reduction in pain response at 50 mg/kg, ip; type: functional; parameters: scale not given: the % may be the effect or the level left; settings: route intraperitoneal
Rattus norvegicus [11] = assay: Analgesic activity in rat formalin pain model assessed as reduction in pain response at 50 mg/kg, po; type: functional; parameters: scale not given: the % may be the effect or the level left
Rattus norvegicus [12] = assay: as §1; type: ADME, organism-based; settings: in vivo

| SMILES | pIC50 [1] | Activity (Liver microsomes [2]) | Ratio (Caco-2) | Activity (Liver microsomes [3]) | bioavailability [4] | Papp A→B [5] | AUC [6] | solubility [7] | Activity (Rattus norvegicus [8]) | Activity (Rattus norvegicus [9]) | Activity (Rattus norvegicus [10]) | Activity (Rattus norvegicus [11]) | F (Rattus norvegicus [12]) |
| --- | --- | --- | --- | --- | --- | --- | --- | --- | --- | --- | --- | --- | --- |
| CS(=O)(=O)N(Cc1cccc(F)c1)c1c(Cl)c(Cl)cc2[nH]c(=O)c(=O)[nH]c12 | 7.35 | Active | 4.07 | Active | 10% | 1.75 ×10⁻⁶ cm/s | 589 ng·h/mL | 23 µg/mL (≈ 53.2 µM) |  |  |  |  |  |
| COCCCN(c1cc(Cl)cc2[nH]c(=O)c(=O)[nH]c12)S(C)(=O)=O | 6.14 | Active | 0.1 | Active |  | 0.01 ×10⁻⁶ cm/s |  | 72 µg/mL (≈ 199 µM) |  |  |  |  |  |
| CCc1cc2[nH]c(=O)c(=O)[nH]c2c(N(CCCOC)S(C)(=O)=O)c1Cl | 7.31 | Active |  | Active | 47% | 0.01 ×10⁻⁶ cm/s | 632 ng·h/mL | 78 µg/mL (≈ 200 µM) |  |  |  |  |  |
| Cc1c(Cl)cc2[nH]c(=O)c(=O)[nH]c2c1N(CCO)S(C)(=O)=O | 7.85 | Active |  | Active | 4% |  | 605 ng·h/mL | 70 µg/mL (≈ 201 µM) | 0% |  |  |  |  |
| CS(=O)(=O)N(CC1CCCCO1)c1c(Cl)c(Cl)cc2[nH]c(=O)c(=O)[nH]c12 (stereo unspecified) | 7.41 | Active |  | Active | 53% | < 0.01 ×10⁻⁶ cm/s | 1490 ng·h/mL | 25 µg/mL (≈ 59.2 µM) |  |  |  |  |  |
| Cc1cc2[nH]c(=O)c(=O)[nH]c2c(N(CC(=O)O)S(C)(=O)=O)c1Cl | 9.00 | Active |  | Active | 5% |  | 155 ng·h/mL | 72 µg/mL (≈ 199 µM) | 62.5% |  |  |  |  |
| CCc1c(Cl)cc2[nH]c(=O)c(=O)[nH]c2c1N(CCO)S(C)(=O)=O | 7.24 | Active |  | Active | 1% |  | 183 ng·h/mL | 72 µg/mL (≈ 199 µM) | 0% |  |  |  |  |
| CS(=O)(=O)N(CCC(F)(F)F)c1c(Cl)c(Cl)cc2[nH]c(=O)c(=O)[nH]c12 | 7.66 and 7.96 and 7.74 | Active | 15 | Active |  | 0.41 ×10⁻⁶ cm/s |  | 56 µg/mL (≈ 133 µM) |  | 0% | 40% |  |  |
| CS(=O)(=O)N(CC(=O)O)c1c(Cl)c(Cl)cc2[nH]c(=O)c(=O)[nH]c12 | 8.70 | Active |  | Active |  |  | 393 ng·h/mL | 76 µg/mL (≈ 199 µM) | 100% |  |  |  |  |
| Cc1c(Cl)cc2[nH]c(=O)c(=O)[nH]c2c1N(CC(=O)O)S(C)(=O)=O | 8.70 | Active |  | Active | 7% |  | 1500 ng·h/mL |  | 87.5% |  |  |  |  |
| COc1cccc(CN(c2c(Cl)c(Cl)cc3[nH]c(=O)c(=O)[nH]c23)S(C)(=O)=O)c1 | 7.92 | Active | 4.67 | Active | 8% | 3.43 ×10⁻⁶ cm/s | 152 ng·h/mL | 40 µg/mL (≈ 90 µM) |  |  |  |  |  |
| COCCN(c1c(Cl)c(Cl)cc2[nH]c(=O)c(=O)[nH]c12)S(C)(=O)=O | 7.42 | Active |  | Active | 33% | 0.01 ×10⁻⁶ cm/s | 1080 ng·h/mL | 76 µg/mL (≈ 199 µM) |  |  |  |  |  |
| CS(=O)(=O)N(CCCO)c1c(Cl)c(Cl)cc2[nH]c(=O)c(=O)[nH]c12 | 7.39 | Active |  | Active | 1% |  | 136 ng·h/mL | 76 µg/mL (≈ 199 µM) |  |  |  |  |  |
| CS(=O)(=O)N(CC1CCCO1)c1c(Cl)c(Cl)cc2[nH]c(=O)c(=O)[nH]c12 (stereo unspecified) | 7.23 | Active | 7.55 | Active | 31% | 1.52 ×10⁻⁶ cm/s | 922 ng·h/mL | 16 µg/mL (≈ 39.2 µM) |  |  |  |  |  |
| CC(O)CN(c1c(Cl)c(Cl)cc2[nH]c(=O)c(=O)[nH]c12)S(C)(=O)=O (stereo unspecified) | 7.40 | Active |  | Active | 1% |  | 680 ng·h/mL | 76 µg/mL (≈ 199 µM) |  |  |  |  |  |
| CCOCCOCCN(c1c(Cl)c(Cl)cc2[nH]c(=O)c(=O)[nH]c12)S(C)(=O)=O | 6.78 | Active | 12.4 | Active | 90% | 0.97 ×10⁻⁶ cm/s | 840 ng·h/mL | 88 µg/mL (≈ 200 µM) |  |  |  |  |  |
| COCCN(c1c(C)c(Cl)cc2[nH]c(=O)c(=O)[nH]c12)S(C)(=O)=O | 7.13 | Active |  | Active | 100% | 0.01 ×10⁻⁶ cm/s | 2620 ng·h/mL | 72 µg/mL (≈ 199 µM) |  |  |  |  |  |
| CCS(=O)(=O)N(CCC(F)(F)F)c1c(Cl)c(Cl)cc2[nH]c(=O)c(=O)[nH]c12 | 6.96 and 7.70 and 7.57 | Active |  | Active | 32% |  | 3920 ng·h/mL |  |  | 0% | 60% | 30% |  |
| COCCN(c1c(Cl)c(C)cc2[nH]c(=O)c(=O)[nH]c12)S(C)(=O)=O | 7.11 | Active | 30.6 | Active | 57% | 0.14 ×10⁻⁶ cm/s | 1190 ng·h/mL | 72 µg/mL (≈ 199 µM) |  |  |  |  |  |
| CCOCCN(c1c(Cl)c(Cl)cc2[nH]c(=O)c(=O)[nH]c12)S(C)(=O)=O | 6.68 | Active | 1.38 | Active | 78% | 10 ×10⁻⁶ cm/s | 2260 ng·h/mL | 79 µg/mL (≈ 199 µM) |  |  |  |  |  |
| CCOCCCN(c1c(Cl)c(Cl)cc2[nH]c(=O)c(=O)[nH]c12)S(C)(=O)=O | 7.72 | Active | 28.4 | Active | 33% | 0.44 ×10⁻⁶ cm/s | 1270 ng·h/mL | 82 µg/mL (≈ 200 µM) |  |  |  |  |  |
| COCCCN(c1c(Cl)c(Cl)cc2[nH]c(=O)c(=O)[nH]c12)S(C)(=O)=O |  | Active | 6.05 | Active | 41% | 2.06 ×10⁻⁶ cm/s |  | 79 µg/mL (≈ 199 µM) |  | 20% |  |  | 43% and 39% |
| Cc1cc2[nH]c(=O)c(=O)[nH]c2c(N(CCO)S(C)(=O)=O)c1Cl | 8.40 | Active |  | Active | 9% |  | 791 ng·h/mL | 70 µg/mL (≈ 201 µM) | 0% |  |  |  |  |

— ChEMBL document CHEMBL1140651, “N-(6,7-dichloro-2,3-dioxo-1,2,3,4-tetrahydroquinoxalin-5-yl)-N-alkylsulfonamides as peripherally restricted N-methyl-D-aspartate receptor antagonists for the treatment of pain” (Bioorg Med Chem Lett, 2007)
